{"source": "paper PMC12122562", "about": "“Phase 1 studies of the indenoisoquinolines LMP776 and LMP744 in patients with solid tumors and lymphomas” (Cancer Chemotherapy and Pharmacology, 2025)", "origin": "cited, not measured here", "key": {"[1]": {"tested_on": "PTEN-null glioblastoma cells", "set-up": "method as in PMID 37706203", "settings": "combined with the PARP inhibitor niraparib; cited from earlier work"}, "[2]": {"tested_on": "patients with advanced solid tumors", "settings": "cited from earlier work"}, "advanced solid tumors": {"tested_on": "advanced solid tumors", "set-up": "method as in PMID 27169793", "settings": "cited from earlier work"}, "[3]": {"tested_on": "naturally occurring lymphomas", "set-up": "method as in PMID 30061364", "settings": "canines with lymphomas; cited from earlier work"}}, "note": "Like-named read-outs stand apart in the source and are kept apart here."}
{"smiles": "COc1cc2c3c(n(CCCN4CCOCC4)c(=O)c2cc1OC)-c1cc2c(cc1C3=O)OCO2", "note": "[LMP400]", "values": [{"measurement": "Cell killing activity in combination", "setting": "[1]", "value": "synergistic cell killing activity"}, {"measurement": "Nausea, prevalence", "setting": "[2]", "value": 5, "unit": "%"}, {"measurement": "Alanine aminotransferase increased, patients", "setting": "[2]; grade 2, n=21, ref 1 (suppl.)", "value": 3}, {"measurement": "Anemia, patients", "setting": "[2]; grade 2, n=21, ref 1 (suppl.)", "value": 8}, {"measurement": "Aspartate aminotransferase increased, patients", "setting": "[2]; grade 2, n=21, ref 1 (suppl.)", "value": 2}, {"measurement": "Blood bilirubin increased, patients", "setting": "[2]; grade 2, n=21, ref 1 (suppl.)", "value": 2}, {"measurement": "Diarrhea, patients", "setting": "[2]; grade 2, n=21, ref 1 (suppl.)", "value": 1}, {"measurement": "Dyspepsia, patients", "setting": "[2]; grade 2, n=21, ref 1 (suppl.)", "value": 1}, {"measurement": "Fatigue, patients", "setting": "[2]; grade 2, n=21, ref 1 (suppl.)", "value": 3}, {"measurement": "Hyperkalemia, patients", "setting": "[2]; grade 2, n=21, ref 1 (suppl.)", "value": 1}, {"measurement": "Hypophosphatemia, patients", "setting": "[2]; grade 2, n=21, ref 1 (suppl.)", "value": 1}, {"measurement": "Lethargy, patients", "setting": "[2]; grade 2, n=21, ref 1 (suppl.)", "value": 1}, {"measurement": "Lymphocyte count decreased, patients", "setting": "[2]; grade 2, n=21, ref 1 (suppl.)", "value": 4}, {"measurement": "Nausea, patients", "setting": "[2]; grade 2, n=21, ref 1 (suppl.)", "value": 1}, {"measurement": "Neutropenia, patients", "setting": "[2]; grade 2, n=21, ref 1 (suppl.)", "value": 1}, {"measurement": "Weight loss, patients", "setting": "[2]; grade 2, n=21, ref 1 (suppl.)", "value": 1}, {"measurement": "White blood cell count decreased, patients", "setting": "[2]; grade 2, n=21, ref 1 (suppl.)", "value": 1}, {"measurement": "Anemia, patients", "setting": "[2]; grade 3, n=21, ref 1 (suppl.)", "value": 2}, {"measurement": "Fatigue, patients", "setting": "[2]; grade 3, n=21, ref 1 (suppl.)", "value": 1}, {"measurement": "Febrile Neutropenia, patients", "setting": "[2]; grade 3, n=21, ref 1 (suppl.)", "value": 2}, {"measurement": "Lymphocyte count decreased, patients", "setting": "[2]; grade 3, n=21, ref 1 (suppl.)", "value": 3}, {"measurement": "White blood cell count decreased, patients", "setting": "[2]; grade 3, n=21, ref 1 (suppl.)", "value": 1}, {"measurement": "Neutropenia, patients", "setting": "[2]; grade 4, n=21, ref 1 (suppl.)", "value": 3}, {"measurement": "Platelet count decreased, patients", "setting": "[2]; grade 4, n=21, ref 1 (suppl.)", "value": 3}, {"measurement": "White blood cell count decreased, patients", "setting": "[2]; grade 4, n=21, ref 1 (suppl.)", "value": 2}, {"measurement": "Best response", "setting": "advanced solid tumors", "value": "stable disease"}, {"measurement": "Responders", "setting": "[3]", "value": "9 of 27"}, {"measurement": "Response rate", "setting": "[3]", "value": 33.3, "unit": "%"}]}
